We go through two molecules from patent US11274132B2, “Combined preparations of PKM2 modulators and HMGB1” (Ruprecht-Karls-Universität Heidelberg, priority 2015, dated 2022).

One series deals with HT29 cells. Nature of the series: Crystal violet cytotoxicity assay. The series is classed as cell-based. Particulars: supernatants of anti-Nkp30 stimulated blood NK cells; glycyrrhizin 200 μM, 72 h. The protocol: (§1) Human colon carcinoma cell lines SW480, HCT116, HT29 and Caco2, the human glioblastoma cell line U251MG and the Natural killer cell line NK-92 Cl were purchased from ATCC. Cell lines were regularly tested for contamination by multiplex PCR performed in the Genomics and Proteomics Core Facility 2 (DKFZ, Heidelberg, Germany). For experiments, cells were cultured for no more than 10 passages. Rho zero cells were generated as described earlier 1. (Gdynia, G. et al. Danger signaling protein HMGB1 induces a distinct form of cell death accompanied by formation of giant mitochondria. Cancer research 70, 8558-8568). Cells used in the experiments were cultured in RPMI (#1640, colon carcinomas, NK cells) or DMEM high glucose (#41965-039, glioblastoma cells) medium. Rho zero cells were generated as described earlier (Gdynia, G. et al. ibd.). Briefly, cells were cultured in RPMI medium (10% FCS, 1% P/S) supplemented with 250 ng/ml ethidiumbromide, 50 μg/ml L-pyruvate and 5 mg/ml uridine over a period of 12 weeks. For cytotoxicity measurements, cells were cultured in 96-well plates, treated with recombinant human HMGB1 protein (Sigma-Aldrich®), glycyrrhizinic acid ((3β, 18α)-30-hydroxy-11, 30-dioxoolean-12-en-3-yl 2-O-β-D-glucopyranuronosyl-β-D-glucopyranosiduronic acid)) (Sigma-Aldrich®), 10 μM (non-toxic) or 100 μM (cytotoxic) P-M2tide (aa sequence: GGAVDDDpYAQFANGG; #BML-P239-0001; Enzo Life Sciences) or 100 μM ML-265 (Cayman Chemical), then cell viability was assessed by crystal violet staining (Gillies, R. J., Didier, N. & Denton, M. Determination of cell number in monolayer cultures. Analytical biochemistry 159, 109-113 (1986)). Malic enzyme 1 knock-down was performed with 40 nM siRNA using lipofectamine in 6-well plates followed by treatment with 80 nM HMGB1 for 72 h. Sequences of siRNA were: ME1, 5′-[…]-3′ and scrambled control 5′-CCUGCAGUACUUCAAGCGGtt-3′. PKM2 siRNA was from Santa Cruz. A nonspecific siRNA served as control (Dharmacon, Schwerte, Germany). For overexpression of PKM2 or ME1, cells were transfected with pCMV-PKM2 (Sino Biological Inc., Beijing, China) or pCMV-ME1 (OriGene, Rockville, Md., USA) using Lipofectamine 2000. For cytotoxicity measurements confluent cells were cultured in 96-well plates if not otherwise indicated. Cytotoxic activity of supernatants from stimulated NK cells was assessed in 96-well plates for 3 days with RPMI medium as reference. Recombinant human HMGB1 (10 ng, Sigma) suited as positive control. For mass isotopomer assays, cells were cultured in glucose- or glutamine-free medium supplemented with either uniformly labeled (U)-13C-D-glucose or U-13C-glutamine (Sigma-Aldrich®).

Series [1] has as its system SW480 colorectal cancer cells. Kind of series: Crystal violet cytotoxicity assay. The series is classed as cell-based. The method, then: as §1
The test system of series [2] is HCT116 colorectal cancer cells. Kind of series: Crystal violet cytotoxicity assay. The series is classed as cell-based. The protocol:
as §1

The test system of series [3] is glucose flux (glycolysis). Kind of series: Glycolysis: conversion of 5-3H-Glucose to 3H2O. The series is classed as cell-based, human. Particulars: SW480 cells; co-treatment, glycyrrhizin 200 μM. The protocol: Lactate derived from the metabolism of ^13C6-D-glucose or ^13C5-glutamine was determined by comparing the CH3 group intensities of labeled and non-labeled lactate in NMR. Mitochondrial respiration was measured using an Oroboros 1 oxygraph system. Glycolysis was measured by monitoring the conversion of 5-^3H-Glucose to ^3H2O. Incorporation of ^14C into RNA ribose from U-^14C-labelled glucose was taken as glucose utilization in the pentose phosphate shunt. Enzymatic activities were determined in subcellular fractions as previously described^24.

The target in a further series is T1, tetrameric PK M2 (Homo sapiens, UniProt P14618).
T1 construct: Activities of glycolytic enzymes measured in cytosolic fractions after treatment with HMGB1; endogenous in cells; host or cells: SW480, HCT116, HT29 cytosolic fractions; homogenates of human colon cancer tissue slices
T1 sequence (P14618 2-531): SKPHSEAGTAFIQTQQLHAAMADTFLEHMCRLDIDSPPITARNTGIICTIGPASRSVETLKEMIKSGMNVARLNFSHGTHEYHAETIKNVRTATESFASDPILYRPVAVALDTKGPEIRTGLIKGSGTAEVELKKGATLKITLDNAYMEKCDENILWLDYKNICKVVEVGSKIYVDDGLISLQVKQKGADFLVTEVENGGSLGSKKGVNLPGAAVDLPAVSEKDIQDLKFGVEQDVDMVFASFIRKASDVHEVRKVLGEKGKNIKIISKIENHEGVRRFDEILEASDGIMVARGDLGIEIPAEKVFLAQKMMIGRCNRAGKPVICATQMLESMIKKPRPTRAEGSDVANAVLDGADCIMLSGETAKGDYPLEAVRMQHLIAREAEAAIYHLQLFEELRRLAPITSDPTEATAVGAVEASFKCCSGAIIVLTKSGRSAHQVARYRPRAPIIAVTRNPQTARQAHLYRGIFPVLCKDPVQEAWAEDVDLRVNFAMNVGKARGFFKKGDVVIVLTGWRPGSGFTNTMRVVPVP
Kind of series: Pyruvate kinase enzymatic assay in cytosolic fractions / homogenates (low PEP). The series is classed as cell-based. The settings on record: glycyrrhizin 200 μM. The method, then:
Enzymatic activities of respiratory chain complexes, glycolytic proteins and malic enzyme were determined in subcellular fractions as previously described (Kaminski, M. M. et al. T cell activation is driven by an ADP-dependent glucokinase linking enhanced glycolysis with mitochondrial reactive oxygen species generation. Cell reports 2, 1300-1315 (2012).Bruncko, M. et al. Naphthamidine urokinase plasminogen activator inhibitors with improved pharmacokinetic properties. Bioorganic & medicinal chemistry letters 15, 93-98, (2005)) using a computer-tuneable spectrophotometer (Spectramax Plus Microplate Reader, Molecular Devices; Sunny Vale, Calif., USA) operating in the dual wavelength mode; samples were analyzed in temperature-controlled 96-well plates in a final volume of 300 μl. Activity of ME1 was recorded in presence of increasing amounts of malic acid (0.02, 0.05, 0.1, 0.2, 0.5, 1, 2.5 mM). Vmax and Km were calculated using a Hanes-Woolf plot. In the presence of high substrate levels the Km for malic acid was similar in all three tested cell lines (SW480: 0.32 mM, HCT116: 0.30 mM, HT29: 0.31 mM). Vmax (mU/mg protein) values were 3.38 (SW480, 0.5-5.0 mM malic acid), 5.77 (HCT116, 0.5-5.0 mM malic acid) and 3.68 (HT29, 0.5-5.0 mM malic acid) and 1.68 (SW480, 0.02-0.2 mM malic acid), 3.24 (HCT116, 0.02-0.2 mM malic acid) and 1.89 (HT29, 0.02-0.2 mM malic acid). Two isoforms of ME1, mitochondrial (NAD(P)+dependent) ME3 and mitochondrial (NAD+dependent) ME2, had very low or no detectable activities (data not shown).

For series [4], the system named is colon carcinoma cell lines. Nature of the series: MTT assay. The series is classed as cell-based, human. The settings on record: all colon carcinoma cell lines used; 0, 24, 48 hours; p<0.05, n=4. The protocol:
Assays were performed at three time points (0, 24, 48 hours), and the experiment was repeated four times. At each time point the cell viability was measured using the 3-(4,5-dimethylthiazol-2-yl)-2,5-diphenyl tetrazolium bromide (MTT) assay. The MTT assay was performed as described by Mosmann (Mosmann T. Rapid colorimetric assay for cellular growth and survival: application to proliferation and cytotoxicity assays. J Immunol Methods. 1983;65:55-63.). In brief, at each time point, medium was aspirated from the wells and MTT (1 mg/ml) was gently added to each well. The cells were incubated for 3 hours at 37° C. in 5% CO2, after which the MTT was aspirated and acidified isopropanol (0.04 M HCl) added to solubilize the reduced blue formazan crystals. Aliquots were transferred to a 96-well plate and the absorbance measured at a test filter of 590 nm and a reference filter of 630 nm on a 96-well plate reader.

In series [5] the test system is colon carcinoma cell lines. Nature of the series: LDH release assay. The series is classed as cell-based, human. Particulars: all colon carcinoma cell lines used; p<0.05, n=4. The protocol: Lactate dehydrogenase activity was assayed spectrophotometrically by measuring the oxidation of NADH with pyruvate substrate at 340 nm as described in Bergmeyer and Berndt E. (1974). Results were analyzed using the following equation: […]
Background: LDH in the medium is a marker of cell lysis.

Where [6] appears, read: glycyrrhizin as inhibitor of HMGB1.
[7] abbreviates: supernatants of anti-Nkp30 stimulated blood NK cells, glycyrrhizin 200 μM, 72 h.

For `CC1(C)[C@@H](O[C@H]2O[C@H](C(=O)O)[C@@H](O)[C@H](O)[C@H]2O[C@@H]2O[C@H](C(=O)O)[C@@H](O)[C@H](O)[C@H]2O)CC[C@]2(C)[C@H]3C(=O)C=C4[C@@H]5C[C@@](C)(C(=O)O)CC[C@]5(C)CC[C@@]4(C)[C@]3(C)CC[C@@H]12` [glycyrrhizin, (3β, 18α)-30-hydroxy-11, 30-dioxoolean-12-en-3-yl 2-O-β-D-glucopyranuronosyl-β-D-glucopyranosiduronic acid, reference compound], the “effect on NK cell-dependent cytotoxic effect” value is reported as “diminished” in the series on HT29 cells, “not changed” in series [1] (setting [7]) and “diminished” in series [2] (setting [7]). The “blocking of HMGB1 cytotoxic effects” value in series [1] (setting [6]) and in series [2] (setting [6]) was “significantly blocked” in each case. Further, the “reversal of HMGB1-induced metabolic shift” value in series [3] is on record as “partly reversed”. Besides, the “restoration of tetrameric PK M2 activity inhibited by NK cell supernatant” value on tetrameric PK M2 is given as “completely restored”.

B1: GInHMGB1: HMGB1 polypeptide with its B-Box domain tyrosine residues replaced by glutamine (SEQ ID NO:12), expressed in HEK cells (protein)
chain: MGKGDPKKPRGKMSSYAFFVQTCREEHKKKHPDASVNFSEFSKKCSERWKTMSAKEKGKFEDMAKADKARYEREMKTYIPPKGETKKKFKDPNAPKRPPSAFFLFCSEQRPKIKGEHPGLSIGDVAKKLGEMWNNTAADDKQPQEKKAAKLKEKQEKDIAAQRAKGKPDAAKKGVVKAEKSKKKKEEEEDEEDEEDEEEEEDEEDEDEEEDDDDE
modifications: HMGB1 Y -> Q mutein
B1: in series [4], the “proliferation (cell viability, MTT) compared to the untreated control” value is reported as “significant decrease in proliferation”. In addition, in series [5], the “release of LDH into the medium compared to the untreated control” value was “significant release of LDH”.
